The values below come from US10112941B2, “Tricyclic compounds as anticancer agents” (BRISTOL-MYERS SQUIBB COMPANY, priority 2013, dated 2018).

For the assay, the target named is BRD4 (Homo sapiens, UniProt O60885). Description: Time Resolved Fluorescence Resonance Energy Transfer (TR-FRET) binding assay, BRD4. As to conditions: one of the FRET assays described; read-out: FRET BRD4 IC50.

The IC50 is the concentration that inhibits the measured activity by half.

With `Cc1nnn(C)c1-c1cnc2c3ccc(S(C)(=O)=O)cc3n([C@H](c3ccc(F)cc3)C3CCOCC3)c2c1` [Example 178, 5-{5-[(S)-(4-Fluorophenyl)(oxan-4-yl)methyl]-7-methanesulfonyl-5H-pyrido[3,2-b]indol-3-yl}-1,4-dimethyl-1H-1,2,3-triazole], the IC50 is below 5 nM.

Turning to `Cn1nnc(CO)c1-c1cnc2c3ccc(S(C)(=O)=O)cc3n([C@H](c3ccccc3)C3CCOCC3)c2c1` [Example 179, (5-{7-Methanesulfonyl-5-[(S)-oxan-4-yl(phenyl)methyl]-5H-pyrido[3,2-b]indol-3-yl}-1-methyl-1H-1,2,3-triazol-4-yl)methanol], the IC50 was below 5 nM.

Consider `Cn1nnc(CF)c1-c1cnc2c3ccc(S(C)(=O)=O)cc3n([C@H](c3ccccc3)C3CCOCC3)c2c1` [Example 180, 4-(Fluoromethyl)-5-{7-methanesulfonyl-5-[(S)-oxan-4-yl(phenyl)methyl]-5H-pyrido[3,2-b]indol-3-yl}-1-methyl-1H-1,2,3-triazole], for which the IC50 is below 5 nM.

With `Cc1nnn(C)c1-c1cnc2c3c(F)ccc(S(C)(=O)=O)c3n([C@H](c3ccccc3)C3CCOCC3)c2c1` [Example 181, 5-{9-Fluoro-6-methanesulfonyl-5-[(S)-oxan-4-yl(phenyl)methyl]-5H-pyrido[3,2-b]indol-3-yl}-1,4-dimethyl-1H-1,2,3-triazole], the IC50 was below 5 nM.

For the compound `COc1ccc(S(C)(=O)=O)c2c1c1ncc(-c3c(C)nnn3C)cc1n2[C@H](c1ccccc1)C1CCOCC1` [Example 182, 5-{6-Methanesulfonyl-9-methoxy-5-[(S)-oxan-4-yl(phenyl)methyl]-5H-pyrido[3,2-b]indol-3-yl}-1,4-dimethyl-1H-1,2,3-triazole], the IC50 is below 5 nM.

For `[2H]C([2H])([2H])c1nnn(C)c1-c1cnc2c3c(OC)ccc(S(C)(=O)=O)c3n([C@H](c3ccccc3)C3CCOCC3)c2c1` [Example 183, 5-{6-Methanesulfonyl-9-methoxy-5-[(S)-oxan-4-yl(phenyl)methyl]-5H-pyrido[3,2-b]indol-3-yl}-4-(^2H3)methyl-1-methyl-1H-1,2,3-triazole], the IC50 is below 5 nM.

As to `[2H]C([2H])([2H])Oc1ccc(S(=O)(=O)C([2H])([2H])[2H])c2c1c1ncc(-c3c(C)nnn3C)cc1n2[C@H](c1ccccc1)C1CCOCC1` [Example 184, 5-[6-(^2H3)Methanesulfonyl-9-(^2H3)methoxy-5-[(S)-oxan-4-yl(phenyl)methyl]-5H-pyrido[3,2-b]indol-3-yl]-1,4-dimethyl-1H-1,2,3-triazole], the IC50 was below 5 nM.

`COc1ccc(S(C)(=O)=O)c2c1c1ncc(-c3c(C)noc3C)cc1n2[C@H](c1ccccc1)C1CCOCC1` [Example 185, 4-{6-Methanesulfonyl-9-methoxy-5-[(S)-oxan-4-yl(phenyl)methyl]-5H-pyrido[3,2-b]indol-3-yl}-3,5-dimethyl-1,2-oxazole]: the IC50 was below 5 nM.

In the case of `COc1ccc(S(C)(=O)=O)c2c1c1ncc(-c3c(C)noc3C)cc1n2[C@H](c1ccccc1F)C1CCOCC1` [Example 186, 4-{5-[(S)-(2-Fluorophenyl)(oxan-4-yl)methyl]-6-methanesulfonyl-9-methoxy-5H-pyrido[3,2-b]indol-3-yl}-3,5-dimethyl-1,2-oxazole], the IC50 was below 5 nM.

`COc1ccc(S(C)(=O)=O)c2c1c1ncc(-c3c(C)noc3C)cc1n2[C@H](c1ccc(F)cc1)C1CCOCC1` [Example 187, 4-{5-[(S)-(4-Fluorophenyl)(oxan-4-yl)methyl]-6-methanesulfonyl-9-methoxy-5H-pyrido[3,2-b]indol-3-yl}-3,5-dimethyl-1,2-oxazole]: the IC50 is below 5 nM.

With `COc1ccc(S(C)(=O)=O)c2c1c1ncc(-c3c(C)nnn3C)cc1n2[C@H](c1ccccc1F)C1CCOCC1` [Example 188, 5-{5-[(S)-(2-Fluorophenyl)(oxan-4-yl)methyl]-6-methanesulfonyl-9-methoxy-5H-pyrido[3,2-b]indol-3-yl}-1,4-dimethyl-1H-1,2,3-triazole], the IC50 was below 5 nM.

`[2H]C([2H])([2H])c1nnn(C)c1-c1cnc2c3c(OC)ccc(S(C)(=O)=O)c3n([C@H](c3ccccc3F)C3CCOCC3)c2c1` [Example 189, 5-{5-[(S)-(2-Fluorophenyl)(oxan-4-yl)methyl]-6-methanesulfonyl-9-methoxy-5H-pyrido[3,2-b]indol-3-yl}-4-(^2H3)methyl-1-methyl-1H-1,2,3-triazole]: the IC50 was below 5 nM.

In the case of `COc1ccc(S(C)(=O)=O)c2c1c1ncc(-c3c(C)nnn3C)cc1n2[C@H](c1ccc(F)cc1)C1CCOCC1` [Example 190, 5-{5-[(S)-(4-Fluorophenyl)(oxan-4-yl)methyl]-6-methanesulfonyl-9-methoxy-5H-pyrido[3,2-b]indol-3-yl}-1,4-dimethyl-1H-1,2,3-triazole], the IC50 is below 5 nM.

With `[2H]C([2H])([2H])c1nnn(C)c1-c1cnc2c3c(OC)ccc(S(C)(=O)=O)c3n([C@H](c3ccc(F)cc3)C3CCOCC3)c2c1` [Example 191, 5-{5-[(S)-(4-Fluorophenyl)(oxan-4-yl)methyl]-6-methanesulfonyl-9-methoxy-5H-pyrido[3,2-b]indol-3-yl}-4-(^2H3)methyl-1-methyl-1H-1,2,3-triazole], the IC50 was below 5 nM.

As to `[2H]C([2H])([2H])c1onc(C)c1-c1cnc2c3ccc(C(C)(C)O)cc3n([C@H](c3ccccc3)C3CCOCC3)c2c1` [Example 192, 2-{3-[5-(^2H3)Methyl-3-methyl-1,2-oxazol-4-yl]-5-[(S)-oxan-4-yl(phenyl)methyl]-5H-pyrido[3,2-b]indol-7-yl}propan-2-ol], the IC50 was below 5 nM.

In the case of `[2H]C([2H])([2H])c1onc(C)c1-c1cnc2c3c(OC)ccc(S(=O)(=O)C([2H])([2H])[2H])c3n([C@H](c3ccccc3)C3CCOCC3)c2c1` [Example 193, 4-[6-(^2H3)Methanesulfonyl-9-methoxy-5-[(S)-oxan-4-yl(phenyl)methyl]-5H-pyrido[3,2-b]indol-3-yl]-5-(^2H3)methyl-3-methyl-1,2-oxazole], the IC50 is below 5 nM.

As to `Cc1nnn(C)c1-c1cnc2c3c(F)cc(S(C)(=O)=O)cc3n([C@H](c3ccccc3)C3CCOCC3)c2c1` [Example 194, 5-{9-Fluoro-7-methanesulfonyl-5-[(S)-oxan-4-yl(phenyl)methyl]-5H-pyrido[3,2-b]indol-3-yl}-1,4-dimethyl-1H-1,2,3-triazole], the IC50 was below 5 nM.

On to `[2H]C([2H])([2H])c1nnn(C)c1-c1cnc2c3c(F)cc(S(C)(=O)=O)cc3n([C@H](c3ccccc3)C3CCOCC3)c2c1` [Example 195, 5-{9-Fluoro-7-methanesulfonyl-5-[(S)-oxan-4-yl(phenyl)methyl]-5H-pyrido[3,2-b]indol-3-yl}-4-(^2H3)methyl-1-methyl-1H-1,2,3-triazole], for which the IC50 was below 5 nM.

Take `[2H]C([2H])([2H])c1nnn(C)c1-c1cnc2c3c(F)cc(S(C)(=O)=O)cc3n([C@H](c3ccccc3F)C3CCOCC3)c2c1` [Example 196, 5-{9-Fluoro-5-[(S)-(2-fluorophenyl)(oxan-4-yl)methyl]-7-methanesulfonyl-5H-pyrido[3,2-b]indol-3-yl}-4-(^2H3)methyl-1-methyl-1H-1,2,3-triazole]: the IC50 is below 25 nM.
